Laboratory results from article PMC5587909, “Inhibition of the ATP Synthase Eliminates the Intrinsic Resistance of Staphylococcus aureus towards Polymyxins” (mBio, 2017).
In brackets after ≈: the same amount, converted by molar mass. Bridge positions count the residues as written; N and C are the ends. Square brackets hold non-standard residues; d marks the D form. Peptide text beside a SMILES is read from it. * marks the point of attachment. X1 = CC[C@H](C)CCCCC(=O)*; Dab = NCC[C@H](N)C(=O)O

What was measured:
[1] = system: S. aureus JE2 (wild type); test: microbe, parasite or virus in culture; settings: Etest on TSA, 37°C, 22 h; wild type S. aureus JE2
Text: (§1) Staphylococcus aureus is intrinsically resistant to the clinically approved cationic antimicrobial peptides polymyxin B (PMB) and colistin ([1], [16]). […] The MIC for PMB was subsequently determined using Etests for the identified mutants.
(§2) The strains used in this study include S. aureus strain JE2 (plasmid-cured derivative of USA300 LAC) and all derivative strains within the Nebraska Transposon Mutant Library (NTML), consisting of 1,920 unique transposon mutants with inactivation of nonessential genes ([15]). The bursa aurealis transposon used to create the collection contains the resistance cassette ermB, which confers resistance to erythromycin ([15]). Additionally we used S. aureus SA113 and two derivatives, SA113 ΔdltA ([9]) and SA113 ΔmprF ([10]). All bacterial strains were cultured at 37°C in tryptic soy broth (TSB) or on tryptic soy agar (TSA), with antimicrobial agents added as indicated. Two methods have been employed to determine MICs to various antimicrobial agents. (i) A 2-fold broth microdilution assay in TSB (100 µl) with an initial inoculum of approximately 5 × 10^5 cells/ml was employed to determine the MICs of polymyxin B sulfate (Sigma), gallidermin (Santa Cruz Biotechnology), nisin (Sigma), bacitracin (Sigma), and LL-37 (Isca Biochemicals). […] The MIC was determined upon incubation at 37°C for 22 h. […]

[2] = system: S. aureus JE2 vraG transposon mutant (SAUSA300_0648); test: microbe, parasite or virus in culture; settings: Etest on TSA
Text: as §1, §2

[3] = system: S. aureus JE2 vraF transposon mutant (SAUSA300_0647); test: microbe, parasite or virus in culture; settings: Etest on TSA
Text: as §1, §2

[4] = system: S. aureus JE2 graR transposon mutant (SAUSA300_0645); test: microbe, parasite or virus in culture; settings: Etest on TSA
Text: as §1, §2

[5] = system: S. aureus JE2 atpA transposon mutant (SAUSA300_2060); test: microbe, parasite or virus in culture; settings: Etest on TSA
Text: as §1, §2

[6] = system: S. aureus JE2 (WT); test: Kill curve experiment, polymyxin B with or without oligomycin A; format: cell-based, Staphylococcus aureus; settings: WT JE2 in TSB; PMB alone at 0.25× MIC of WT; 4 h
Text: The ATP synthase is a well-described protein complex, and multiple inhibitors have been identified that interfere with its function—e.g., the macrolide oligomycin A ([32]). […] The combinatory efficacy of PMB and oligomycin A is similar to the observed killing efficacy of PMB against the atpA mutant.
FIG 4 Improved killing efficacy of PMB upon inhibition of the ATP synthase. […] The data represent the average from three measurements, with error bars showing 95% confidence intervals.
From overnight cultures of S. aureus JE2 and the derivative atpA mutant, 100 μl was diluted into 900 μl fresh TSB medium in a Falcon tube and grown for 1 h for the cells to reach the early exponential phase. After 1 h, the cultures were diluted into 10 ml fresh TSB medium in 100-ml Erlenmeyer flasks, reaching an initial cell count of approximately 10^6 cells/ml. Oligomycin A (Sigma) was added to flasks as indicated at a concentration of 8 μg/ml. […] CFU were determined on TSA plates before addition of oligomycin A (time zero [T0]), before addition of polymyxin B (time 30 min [T30]), and every hour for the following 4 h.

[7] = system: S. aureus JE2 graR mutant; format: cell-based, Staphylococcus aureus; settings: Etest on cation-adjusted Mueller-Hinton agar, 37°C, 22 h
Procedure: (§3) It has been reported that growth medium composition can affect polymyxin MIC ([23]): therefore, we also tested polymyxin B MICs of the WT and atpA, graR, vraG, and vraF mutants by employing the Etest on cation-adjusted Mueller-Hinton (MH) agar. […] Polymyxin B breakpoints for Pseudomonas aeruginosa are susceptible at a MIC of ≤2 μg/ml, intermediate at a MIC of 4 μg/ml, and resistant at a MIC of ≥8 μg/ml, whereas for Acinetobacter spp., a MIC of ≥4 μg/ml is considered resistant.
(§4) The strains used in this study include S. aureus strain JE2 (plasmid-cured derivative of USA300 LAC) and all derivative strains within the Nebraska Transposon Mutant Library (NTML), consisting of 1,920 unique transposon mutants with inactivation of nonessential genes ([15]). The bursa aurealis transposon used to create the collection contains the resistance cassette ermB, which confers resistance to erythromycin ([15]). Additionally we used S. aureus SA113 and two derivatives, SA113 ΔdltA ([9]) and SA113 ΔmprF ([10]). All bacterial strains were cultured at 37°C in tryptic soy broth (TSB) or on tryptic soy agar (TSA), with antimicrobial agents added as indicated. Two methods have been employed to determine MICs to various antimicrobial agents. (i) A 2-fold broth microdilution assay in TSB (100 µl) with an initial inoculum of approximately 5 × 10^5 cells/ml was employed to determine the MICs of polymyxin B sulfate (Sigma), gallidermin (Santa Cruz Biotechnology), nisin (Sigma), bacitracin (Sigma), and LL-37 (Isca Biochemicals). (ii) An Etest (BioMérieux) performed on TSA plates was employed to determine MICs for polymyxin B, colistin, ciprofloxacin, oxacillin, linezolid, gentamicin, vancomycin, and daptomycin. The MIC was determined upon incubation at 37°C for 22 h. When indicated, the Etest (BioMérieux) was performed on Mueller-Hinton agar plates (cation adjusted for calcium and magnesium).

[8] = system: S. aureus JE2 vraG mutant; format: cell-based, Staphylococcus aureus; settings: Etest on cation-adjusted Mueller-Hinton agar, 37°C, 22 h
Procedure: as §3, §4

[9] = system: S. aureus JE2 vraF mutant; format: cell-based, Staphylococcus aureus; settings: Etest on cation-adjusted Mueller-Hinton agar, 37°C, 22 h
Procedure: as §3, §4

[10] = system: S. aureus JE2 atpA mutant; format: cell-based, Staphylococcus aureus; settings: Etest on cation-adjusted Mueller-Hinton agar, 37°C, 22 h
Procedure: as §3, §4

[11] = system: S. aureus JE2 (WT); format: cell-based, Staphylococcus aureus; settings: Etest on cation-adjusted Mueller-Hinton agar, 37°C, 22 h
Procedure: as §3, §4

[12] = system: S. aureus SA113 ΔdltA mutant; format: cell-based, Staphylococcus aureus; settings: MIC method not given, 37°C, 22 h
Text: as §4

[13] = system: S. aureus SA113 (wild type); format: cell-based, Staphylococcus aureus; settings: MIC method not given, 37°C, 22 h
Text: (§5) Lysinylation of phosphatidylglycerols therefore seems to mediate selective protection against certain cationic antimicrobial peptides.
as §4, with “The MIC was determined upon incubation at 37°C for 22 h. When indicated, the Etest (BioMérieux) was performed on Mueller-Hinton agar plates (cation adjusted for calcium and magnesium).” left out

[14] = system: S. aureus SA113 ΔmprF mutant; format: cell-based, Staphylococcus aureus; settings: MIC method not given, 37°C, 22 h
Text: as §5
as §4, with “The MIC was determined upon incubation at 37°C for 22 h. When indicated, the Etest (BioMérieux) was performed on Mueller-Hinton agar plates (cation adjusted for calcium and magnesium).” left out

Which results are given for `CC[C@H](C)CCCCC(=O)N[C@@H](CCN)C(=O)N[C@H](C(=O)N[C@@H](CCN)C(=O)N[C@H]1CCNC(=O)[C@H]([C@@H](C)O)NC(=O)[C@H](CCN)NC(=O)[C@H](CCN)NC(=O)[C@H](CC(C)C)NC(=O)[C@@H](Cc2ccccc2)NC(=O)[C@H](CCN)NC1=O)[C@@H](C)O` [Polymyxin B, polymyxin B] (X1-[Dab]T[Dab][Dab][Dab][dF]L[Dab][Dab]T; lactam 4-C (inferred); N-terminus assumed)?
MIC [1]: 128 µg/mL (≈ 106 µM); MIC ([2]; 37°C, 22 h, vraG mutant): 16 µg/mL (≈ 13.3 µM); fold reduction in MIC / increased sensitivity relative to WT ([2]; vraG mutant vs WT JE2): 8 fold; MIC ([3]; 37°C, 22 h, vraF mutant): 16 µg/mL (≈ 13.3 µM); fold reduction in MIC / increased sensitivity relative to WT ([3]; vraF mutant vs WT JE2): 8 fold; MIC ([4]; 37°C, 22 h, graR mutant): 16 µg/mL (≈ 13.3 µM); fold reduction in MIC / increased sensitivity relative to WT ([4]; graR mutant vs WT JE2): 8 fold; MIC ([5]; 37°C, 22 h, atpA mutant): 16 µg/mL (≈ 13.3 µM); fold reduction in MIC / increased sensitivity relative to WT ([5]; atpA mutant vs WT JE2): 8 fold; killing efficacy (CFU over time) [6]: continued growth; MIC [7]: 1 to 2 µg/mL; MIC [8]: 1.5 to 2 µg/mL; MIC [9]: 1.5 to 2 µg/mL; MIC [10]: 2 to 4 µg/mL; MIC [11]: 8 to 16 µg/mL; MIC [12]: 48 µg/mL (≈ 39.9 µM); MIC [13]: 512 µg/mL (≈ 425 µM); MIC [14]: 384 µg/mL (≈ 319 µM)
